Assay results taken from patent US20240398962A1, “DENDRIMER-GLUTAMINE ANTAGONIST CONJUGATES AND METHODS OF USE THEREOF” (The Johns Hopkins University, priority 2021, published 2024).

system: not listed separately; assay: Liver homogenate stability (compound disappearance by LC-MS/MS); type: in vitro ADME; conditions: 20 μm, 37° C.
Protocol: Liver or EL4 lymphoma tumor tissues were washed and diluted 10-fold in 0.1 M potassium phosphate buffer and homogenized using a probe sonicator. To evaluate the stability of the analogs 1 mL aliquots were made of each matrix and the analogs were spiked to a final assay concentration of 20 μm. Spiked samples were incubated in an orbital shaker at 37° C. for 1 h, following which reactions were quenched in triplicate with three volumes of acetonitrile containing the internal standard (IS; losartan: 0.5 μm). The samples were vortex-mixed for 30 s and centrifuged at 10 000 g for 10 min at 4° C. Fifty microliters of the supernatant was diluted with 50 μL of water and transferred to a 250 μL polypropylene vial sealed with a Teflon cap. Compound disappearance was monitored over time using liquid chromatography tandem mass spectrometry (LC-MS/MS).

Row | Compound | Liver homogenate stability (% remaining at 1 h incubation) [%]
1 | CC(C)C[C@H](NC(=O)CCOCCOCCN)C(=O)N[C@@H](CCC(=O)C=[N+]=[N-])C(=O)OC(C)(C)C [III, t-Butyl (2S,5S)-15-amino-2-(4-diazo-3-oxobutyl)-5-isobutyl-4,7-dioxo-10,13-dioxa-3,6-diazapentadecanoate] | 79
2 | CC(C)C[C@H](NC(=O)COCCN)C(=O)N[C@@H](CCC(=O)C=[N+]=[N-])C(=O)OC(C)C [V, Isopropyl (S)-2-((S)-2-(2-(2-aminoethoxy)acetamido)-4-methylpentanamido)-6-diazo-5-oxohexanoate] | 17
3 | CC(C)C[C@H](NC(=O)OCC1c2ccccc2-c2ccccc21)C(=O)N[C@@H](CCC(=O)C=[N+]=[N-])C(=O)N[C@@H](Cc1ccccc1)C(=O)NCCOCCOCCOCCC(=O)O [VII, (5S,8S,11S)-11-benzyl-8-(4-diazo-3-oxobutyl)-1-(9H-fluoren-9-yl)-5-isobutyl-3,6,9,12-tetraoxo-2,16,19,22-tetraoxa-4,7,10,13-tetraazapentacosan-25-oic acid] | 0
4 | CC(C)OC(=O)[C@H](CCC(=O)C=[N+]=[N-])NP(=O)(OCCCCN)Oc1ccccc1 (stereo partly drawn) [I, Isopropyl (2S)-2-(((4-aminobutoxy)(phenoxy)phosphoryl)amino)-6-diazo-5-oxohexanoate] | 32
5 | CC(C)C[C@H](NC(=O)OCC1c2ccccc2-c2ccccc21)C(=O)N[C@@H](CCC(=O)C=[N+]=[N-])C(=O)N[C@@H](Cc1ccccc1)C(=O)NCCOCCOCCOCCOCCC(=O)O [VI, (5S,8S,11S)-11-Benzyl-8-(4-diazo-3-oxobutyl)-1-(9H-fluoren-9-yl)-5-isobutyl-3,6,9,12-tetraoxo-2,16,19,22,25-pentaoxa-4,7,10,13-tetraazaoctacosane-28-oic acid] | 12
6 | CC(C)C[C@H](NC(=O)COCCN)C(=O)N[C@@H](CCC(=O)C=[N+]=[N-])C(=O)OC(C)(C)C [II, t-Butyl (S)-2-((S)-2-(2-(2-aminoethoxy)acetamido)-4-methylpentanamido)-6-diazo-5-oxohexanoate] | 94
7 | CC(C)C[C@H](NC(=O)CCOCCOCCN)C(=O)N[C@@H](CCC(=O)C=[N+]=[N-])C(=O)OC(C)C [IV, Isopropyl (2S,5S)-15-amino-2-(4-diazo-3-oxobutyl)-5-isobutyl-4,7-dioxo-10,13-dioxa-3,6-diazapentadecanoate] | 0

system: not listed separately; assay: Stability of the prepared product on storage; type: physicochemical; conditions: should be stored at −80° C.
Protocol: Piperidine (1.00 mL, 10.3 mmol, 20 equiv.) was added and the reaction mixture was stirred at rt for 2 h. The solvent was evaporated and the residue was chromatographed on silica gel (CHCl3/MeOH 1:1+2% Et3N) to afford the desired product I (165 mg, 73%) as a yellowish oil. The prepared product I is very unstable and should be stored at −80° C.

Row | Compound | Stability of prepared product
8 | CC(C)OC(=O)[C@H](CCC(=O)C=[N+]=[N-])NP(=O)(OCCCCN)Oc1ccccc1 (stereo partly drawn) [I, Isopropyl (2S)-2-(((4-aminobutoxy)(phenoxy)phosphoryl)amino)-6-diazo-5-oxohexanoate] | very unstable

system: glutaminase; assay: not given; conditions: cited from earlier work

Row | Compound | Inhibition of glutamine-utilizing enzymes including glutaminase
9 | [N-]=[N+]=CC(=O)CC[C@H](N)C(=O)O [DON, 6-diazo-5-oxo-L-norleucine] | low micromolar levels
